In data set [1] the target is T1, rat-alpha7-nAChR (Rattus norvegicus, UniProt Q05941).
T1 construct: expressed in transfected cells
Put plainly: functional FLIPR assay, alpha7 nAChR stably expressed in GH4C1 cells. It is filed as cell-based.
Description: Rat GH4C1 cells were then transfected with the rat receptor, cloned and analyzed for functional alpha7 nicotinic receptor expression employing a FLIPR assay to measure changes in intracellular calcium concentrations.
The FLIPR system allows the measurements of real time Ca^2+-concentration changes in living cells using a Ca^2+ sensitive fluorescence dye (such as Fluo4). This instrument enables the screening for agonists and antagonists for alpha 7 nAChR channels stably expressed in GH4C1 cells.
GH4C1 cells stably transfected with rat-alpha7-nAChR (see above) were used. These cells are poorly adherent and therefore pretreatment of flasks and plates with poly-D-lysine was carried out. Cells are grown in 150 cm^2 T-flasks, filled with 30 ml of medium at 37° C. and 5% CO2.
EC50 and IC50 values were calculated using the IDBS XLfit4.1 software package employing a sigmoidal concentration-response (variable slope) equation:

The nature of data set [2]: metabolite profile in rat plasma by LC/MS. It is filed as in vivo. Particulars: rat plasma after single 6.7 or 20.5 mg/kg IV dose of parent. Here is the method: (§1) Rat plasma samples from single 6.7 mg/kg IV at 0, 10 min and 20.5 mg/kg IV at 0, 0.5, 4 hr post dosing; dog plasma samples from single 1.5 mg/kg IV at 0, 0.167, 1, 6 hr and 7.6 mg/kg PO at 0, 0.5, 2, 6 hr post dosing were analyzed by LC/MS. A standard of the parent compound was analyzed by LC/MS and there was no impurity detected.
In rat plasma, a compound of formula I was the predominant compound-related material while metabolites were detected at very low levels. […] (See FIGS. 1 and 2; for compound I′ n=1, R^1=methyl, and R^2═H)

Data set [3] is described as follows: metabolite profile in dog plasma by LC/MS. Particulars: dog plasma after single […] IV or 7.6 mg/kg PO dose of parent. It is filed as in vivo. The procedure: as §1
Where [4] appears, read: functional FLIPR primary screening assay, GH4C1 cell line expressing α7 nAChR, read-out: Alpha7 EC50.

What is called EC50 is the concentration needed to bring the measured effect to its halfway point.

Read-outs that look alike come from different tables or passages of the source.

T1 sequence (Q05941 23-502): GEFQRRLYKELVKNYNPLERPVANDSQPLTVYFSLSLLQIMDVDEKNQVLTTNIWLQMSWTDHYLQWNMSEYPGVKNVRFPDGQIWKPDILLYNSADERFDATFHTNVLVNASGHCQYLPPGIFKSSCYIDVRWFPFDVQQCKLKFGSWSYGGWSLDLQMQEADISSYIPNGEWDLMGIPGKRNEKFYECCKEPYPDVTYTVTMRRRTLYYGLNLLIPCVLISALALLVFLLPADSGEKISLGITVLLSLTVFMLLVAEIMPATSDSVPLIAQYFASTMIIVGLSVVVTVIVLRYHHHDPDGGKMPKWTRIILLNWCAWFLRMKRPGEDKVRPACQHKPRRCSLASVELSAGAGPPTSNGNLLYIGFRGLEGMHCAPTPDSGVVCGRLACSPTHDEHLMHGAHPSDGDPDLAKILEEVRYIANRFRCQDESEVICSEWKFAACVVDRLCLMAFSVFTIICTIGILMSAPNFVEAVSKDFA

Turning to `CC(=O)N1CCCC(CCCCC(=O)Nc2cc(-c3ccc(O)cc3)[nH]n2)CC1` (stereo not drawn), the EC50 in data set [1] (setting [4]) turned out to be 1 µM.

As to `COc1ccc(C2CC(NC(=O)CCCCN3CCCNCC3)NN2)cc1` (stereo not drawn), the 50% effective concentration (EC50) in data set [1] (setting [4]) stood at 6.9 µM.

For `CC(=O)N1CCCN(CCCCC(=O)Nc2cc(-c3ccc(O)cc3)n[nH]2)CC1` [Compound I-1], in data set [2], the “compound-related material detected in rat plasma” value is “detected as metabolites”. Moreover, the “compound-related material detected in dog plasma” value in data set [3] is recorded as “very minor metabolite”.

In the case of `CC(=O)N1CCCN(CCCCC(=O)Nc2cc(-c3ccc(OS(=O)(=O)O)cc3)[nH]n2)CC1` [Compound I-2], the “compound-related material detected in rat plasma” value in data set [2] is on record as “detected as metabolites”.

As for `C[N+]1(C)CCN(c2ccccc2)CC1` [DMPP, reference compound], the EC50 in data set [1] (alpha7 nAChR stably expressed in GH4C1 cells, functional FLIPR assay, agonist validation, read-out: EC50) was determined as 0.98 ± 0.47 µM.

For the origin of these results see patent US20090181952A1 (Wyeth, priority 2008, published 2009).
